{
  "source": "patent US20040204375A1",
  "about": "“Gene delivery compounds” (priority 2001, published 2004)",
  "key": {"[1]": {"test_system": "HT29 cells", "assay": "Screening assay for gene transfer activators: adenovirus luciferase or β-galactosidase constructs on confluent cells with test compound", "format": "cell-based, human", "design": "key to Activity (gene transfer activator): +++ = more active; ++ = active; + = less active", "settings": "for Activity (gene transfer activator): gene transfer in presence vs absence of test compound", "protocol": "A gene transfer activating compound is identified by an assay which determines whether gene transfer occurs to a greater extent in the presence of a test compound than in the absence. For example, confluent cells plated in multi-well cell culture units are exposed to adenovirus luciferase or β-galactosidase constructs in the presence of the test compound. The test compound is administered to cells before, after or concurrently with the adenovirus. The extent of gene transfer is measured by visual inspection or quantitative measurement of luciferase or β-galactosidase in the presence and absence of the test compound.\nHT29 cells are grown in 96-well plates. The cells are seeded at near confluency, about 300,000 cells per well, and infected with adenovirus 3-4 days later. […] For screening purposes, cells are grown on plastic. […] The activity of candidate compounds is also confirmed using polarized monolayers grown on filters. Once confluent, HT29 cells are very difficult to transduce with adenoviral constructs. Fewer than 1 in 100 cells express adenoviral transgenes at multiplicity of infection (MOI) of approximately 50. A replication deficient adenovirus encoding firefly luciferase or the E. coli LacZ gene (β-galactosidase) at an MOI of 50 for each well of cells in low serum medium is applied for 4 hours at 37° C. Test drugs are incubated along with the virus. Forty-eight hours later, the cells are assayed for β-galactosidase or luciferase by standard techniques. For example, β-galactosidase is assayed by incubating cells with a β-galactosidase substrate such as 1 mg/ml X-gal 5-bromo-4-chloro-3-indolyl B-D-galactopyranoside (X-gal), overnight at 37° C. When X-gal is cleaved by β-galactosidase, a bright blue precipitate is formed. The intensity of the blue color can be estimated visually or measured by optical densitometry to evaluate the efficiency of adenoviral transduction. Luciferase is assayed using a commercially available kit (Promega) which allows quantitative measurements of adenoviral gene transfer."}, "[2]": {"test_system": "PC-3 human prostate cell tumors", "assay": "In vivo adenoviral gene transfer to prostate tumors, PNP activity (Example 5)", "design": "species or system mice", "settings": "1 mM compound, 2-3×10^9 adenoviral particles per tumor, FIG. 5", "protocol": "Prostate tumors are established in suitable hosts and PNP activity assayed in the presence or absence of adenovirus. Approximately 2-3×10^9 adenoviral particles are administered per tumor in the presence of 1 mM of compound 6975 or in the absence of the compound. Transgene activity is also assayed in livers. Further details of the method are described in (3)."}, "[3]": {"test_system": "HT29 cells", "assay": "Adenoviral LacZ gene transfer to HT29 cells, comparison with EGTA (Example 4)", "format": "cell-based, human", "settings": "100 micromolar compound vs 5 millimolar EGTA, MOI 10", "protocol": "HT29 cells are grown in 96-well plates. The cells are seeded at near confluency, about 300,000 cells per well, and infected with adenovirus 3-4 days later. […] A replication deficient adenovirus encoding LacZ is applied at an MOI of 10 to wells of cells in low serum medium for 4 hours at 37° C. Compound 6975 is incubated along with the virus at a concentration of 100 micromolar. A second set of cells is incubated with virus but no gene transfer activating compound and a third set of cells is incubated with virus and 5 millimolar EGTA. Forty-eight hours later, the cells are assayed for […] by standard techniques."}, "[4]": {"test_system": "IB3 cystic fibrosis airway epithelial cells", "assay": "Adenoviral luciferase gene transfer to IB3 cells (Example 3)", "format": "cell-based", "settings": "100 micromolar compound, MOI 5 or 10, FIG. 3", "protocol": "IB3 cystic fibrosis airway epithelial cells are grown in 96-well plates. The cells are seeded at near confluency, about 300,000 cells per well, and infected with adenovirus 3-4 days later. A replication deficient adenovirus encoding luciferase is applied at an MOI of 5 or 10 to wells of cells in low serum medium for 4 hours at 37° C. Compound 6975 is incubated along with the virus at a concentration of 100 micromolar. A set of cells is incubated with virus but no gene transfer activating compound. Forty-eight hours later, the cells are assayed for luciferase by standard techniques. FIG. 3 presents the results of this assay in a graph."}, "[5]": {"test_system": "HT29 cells", "assay": "Adenoviral LacZ gene transfer to confluent HT29 cells, β-galactosidase assay (Example 2)", "format": "cell-based, human", "settings": "for activation of adenovirus gene transfer: HT29 cells, LacZ adenovirus MOI 0.1-10, 4 hours, assay 48 hours later", "protocol": "HT29 or HeLa cells are grown in 96-well plates. The HT29 cells are seeded at near confluency, about 300,000 cells per well, and infected with adenovirus 3-4 days later. Confluent HeLa cells are used as a positive control. […] A replication deficient adenovirus encoding the E. coli LacZ gene is applied at an MOI of 0.1-10 to wells of cells in low serum medium for 4 hours at 37° C. Gene transfer activating compounds are incubated along with the virus at concentrations of 10 micromolar or 100 micromolar. A set of cells is incubated with virus but no gene transfer activating compound. Forty-eight hours later, the cells are assayed for β-galactosidase by standard techniques. […] FIGS. 2 and 6 illustrate the results using compound 6975 and 8496 respectively."}},
  "data": [
    {"smiles": "[H]/N=C(\\N)N/N=C(\\C)c1ccccn1", "note": "[Compound 6883]", "values": [
      {"measurement": "Activity (gene transfer activator)", "setting": "[1]", "value": "+"}
    ]},
    {"smiles": "[H]/N=C(/N/N=C(\\C)c1ccccn1)Nc1ccccc1", "note": "[Compound 6898]", "values": [
      {"measurement": "Activity (gene transfer activator)", "setting": "[1]", "value": "+"}
    ]},
    {"smiles": "[H]/N=C(/N/N=C(\\C)c1ccccn1)Nc1ccccc1", "note": "[Compound 6975]", "values": [
      {"measurement": "activating adenovirus-mediated gene transfer and expression in cells", "setting": "[1]; FIG. 1", "value": "effective in activating adenovirus-mediated gene transfer and expression in cells"},
      {"measurement": "Activity (gene transfer activator)", "setting": "[1]", "value": "+++"},
      {"measurement": "in vivo adenoviral gene transfer to tumors", "setting": "[2]", "value": "activates in vivo adenoviral gene transfer to PC-3 human prostate cell tumors in mice"},
      {"measurement": "adenovirus gene transfer efficiency compared with EGTA", "setting": "[3]", "value": "activates adenovirus gene transfer more efficiently than EGTA"},
      {"measurement": "adenoviral gene transfer of luciferase to IB3 cells", "setting": "[4]", "value": "activates adenoviral gene transfer of luciferase"},
      {"measurement": "activation of adenovirus gene transfer", "setting": "[5]; 10 micromolar compound", "value": "show activation of adenovirus gene transfer"},
      {"measurement": "activation of adenovirus gene transfer", "setting": "[5]; 100 micromolar compound", "value": "show activation of adenovirus gene transfer"}
    ]},
    {"smiles": "C/C(=N/N=C(/N)NO)c1ccccn1", "note": "[Compound 7036]", "values": [
      {"measurement": "Activity (gene transfer activator)", "setting": "[1]", "value": "++"}
    ]},
    {"smiles": "C/C(=N/NC(=N)NCc1ccccn1)c1ccccn1", "note": "[Compound 7064]", "values": [
      {"measurement": "Activity (gene transfer activator)", "setting": "[1]", "value": "+"}
    ]},
    {"smiles": "[H]/N=c1/ncn([C@@H]2O[C@H](CO)[C@@H](O)[C@H]2O)c2[nH]cnc12", "note": "[Compound 8496]", "values": [
      {"measurement": "Activity (gene transfer activator)", "setting": "[1]", "value": "+++"},
      {"measurement": "adenoviral gene transfer of LacZ to HT29 cells", "setting": "[5]; FIG. 6", "value": "activates adenoviral gene transfer of LacZ to HT29 cells"},
      {"measurement": "activation of adenovirus gene transfer", "setting": "[5]; 10 micromolar compound", "value": "show activation of adenovirus gene transfer"},
      {"measurement": "activation of adenovirus gene transfer", "setting": "[5]; 100 micromolar compound", "value": "show activation of adenovirus gene transfer"}
    ]}
  ]
}
